Earlier results as cited in article PMC8909834, “An Orally Bioavailable and Highly Efficacious Inhibitor of CDK9/FLT3 for the Treatment of Acute Myeloid Leukemia” (Cancers, 2022).

Tested on: CDK9
Settings: cited from earlier work; for selectivity over other CDKs: CDK9 vs other CDKs

CC(=O)N[C@@H]1CCC[C@H](C(=O)Nc2cc(-c3cnn4c3CC(C)(C)C4)c(Cl)cn2)C1 [ADZ4573]
selectivity over other CDKs: > 10 fold
IC50: < 4 nM
